We go through three compounds from patent US20040116348A1, “Polymer-linker-drug conjugates for targeted drug delivery” (priority 2002, published 2004).

The structures appear in SMILES notation.

Series [1] deals with HT-1080 (a human fibrosarcoma line). The experiment in a line: MTT cytotoxicity, HT-1080. The class given is cell-based. As to the method: (§1) Open circles in FIGS. 6A-F represent free doxorubicin and closed circles represent LIG-doxorubicin.
(§2) Cell survival was assayed using an indirect colorimetric […] (MTT assay, e.g., see Alley et al., Cancer Res. 48:589, 1988). The tetrazolium salt MTT is metabolized by NAD-dependent dehydrogenase to form a colored reaction product and the amount of dye formed directly correlates with the number of viable cells. The formula for calculating % survival is given by:
(§3) %survival=(Ti−Tz)/(C−Tz) if Ti≧Tz or
(§4) %survival=(Ti−Tz)/Tz if Ti<Tz
(§5) where Ti=Net MTT reading of test growth in the presence of drugs; Tz=Net MTT reading at time zero with respect to the drug test; and C=Net MTT reading of control growth (see Grever et al., Seminars in Oncology, 19:622, 1992 and Boyd and Paull, Drug Development Research 34:91, 1995).
(§6) The cytotoxicity of methotrexate and various peptidyl-methotrexates were compared in order to assess bulk tolerance. The peptidyl-methotrexates were prepared by linking short peptides of three to four amino acids to methotrexate. […] Methotrexate was covalently coupled to the N-terminal end of the peptides via the γ-carboxyl of its glutamic acid (Nagy et al., Proc. Nat. Acad. Sci. USA 90:6373, 1993). […] Cytotoxicity was assayed as described above in Example 4. […] Example 8 describes the synthesis of certain dextran-oligopeptide-methotrexate conjugates.

The test system of series [2] is BT-20 (a human breast carcinoma line). The series can be described thus: MTT cytotoxicity, BT-20. The class given is cell-based. On the procedure: as §1, §2, §3, §4, §5, §6
The test system of series [3] is U-87 (a human glioblastoma cell line). The series can be described thus: MTT cytotoxicity, U-87. The class given is cell-based. On the procedure: as §1, §2, §3, §4, §5
Series [4] relates to PC-3 (a human prostate tumor cell line). The series can be described thus: MTT cytotoxicity, PC-3. The class given is cell-based. On the procedure: as §1, §2, §3, §4, §5
The subject of series [5] is KK-47 (a human bladder tumor cell line). The series can be described thus: MTT cytotoxicity, KK-47. It counts as cell-based. As to the method: as §1, §2, §3, §4, §5
For series [6], the system named is MGH-U1 (a human bladder cell line). The experiment in a line: MTT cytotoxicity, MGH-U1. The class given is cell-based. As to the method: as §1, §2, §3, §4, §5
The test system of series [7] is RT-112 (human urinary bladder transitional carcinoma line). The series can be described thus: MTT cytotoxicity, RT-112. It counts as cell-based. On the procedure: as §2, §3, §4, §5
The cytotoxicity of methotrexate and various peptidyl-methotrexates were compared in order to assess bulk tolerance. The peptidyl-methotrexates were prepared by linking short peptides of three to four amino acids to methotrexate. The peptides were chosen to represent appropriate cleavage fragments from the MMP-2 sensitive substrate peptide IPVGLIG that was characterized in Examples 1-2. Methotrexate was covalently coupled to the N-terminal end of the peptides via the γ-carboxyl of its glutamic acid (Nagy et al., Proc. Nat. Acad. Sci. USA 90:6373, 1993). […]

In series [8] the test system is human tumor cell lines. The series can be described thus: MTT cytotoxicity, overall statement over the panel of human tumor cell lines. It counts as cell-based. To be noted: three human tumor cell lines. On the procedure:
Cell survival was assayed using an indirect colorimetric […] (MTT assay, e.g., see Alley et al., Cancer Res. 48:589, 1988). The tetrazolium salt MTT is metabolized by NAD-dependent dehydrogenase to form a colored reaction product and the amount of dye formed directly correlates with the number of viable cells. The formula for calculating % survival is given by: […]

For series [9], the system named is HT-1080 tumors. The experiment in a line: In vivo anti-tumor efficacy in SCID mice bearing HT-1080 tumors. As to conditions: end of study; 50 mg methotrexate/kg i.p. on day 1, 8 and 15. As to the method: Each group included three mice.
The dosage chosen for these experiments was based on the reported optimum dosage of free methotrexate for treating tumor-bearing mice (Burger et al., Int. J. Cancer 92:718, 2001). Three weekly injections at 50 mg of methotrexate/kg of body weight was half the maximum tolerated dosage. In another set of experiments the dosage was increased to three weekly injections of 100 mg/kg, or to injections of 50 mg/kg twice per week.

A short description of series [10]: Body weight change as indicator of toxic side effects in SCID mice bearing HT-1080 tumors. To be noted: 50 mg methotrexate/kg i.p. on day 1, 8 and 15.
Description: After 7-10 days, tumors of size 150-300 mm^3 were established on each mouse. […] Weight and tumor size were monitored three times a week. Tumor size was calculated as width^2×length×0.52. […] As a second control, another group of mice were injected with phosphate buffered saline. Each group included three mice.

Consider `CC[C@H](C)[C@H](NC(=O)[C@@H](N)CC(C)C)C(=O)NCC(=O)N[C@H]1C[C@H](O[C@H]2C[C@](O)(C(=O)CO)Cc3c(O)c4c(c(O)c32)C(=O)c2c(OC)cccc2C4=O)O[C@@H](C)[C@H]1O` [LIG-doxorubicin], for which the “cytotoxicity (% survival, MTT)” value in series [1], in series [2], in [3], in series [4], in [5] and in series [6] was “cytotoxic” each time.

In the case of `CC(C)[C@H](NC(=O)[C@@H]1CCCN1C(=O)CC[C@H](NC(=O)c1ccc(N(C)Cc2cnc3nc(N)nc(N)c3n2)cc1)C(=O)O)C(=O)NCC(=O)O` [methotrexate-PVG], the “cytotoxicity (% survival, MTT)” value in series [1], in [2] and in series [7] was “cytotoxic” each time. For the same compound, the “cytotoxicity relative to free methotrexate” value in series [8] is given as “comparable”.

With `CN(Cc1cnc2nc(N)nc(N)c2n1)c1ccc(C(=O)N[C@@H](CCC(=O)O)C(=O)O)cc1` [methotrexate], in series [9], the “tumor growth suppression compared to saline control” value is given as 48%. The “body weight drop compared to initial weight” value in series [10] is reported as 13%.
